The values below come from patent US9227923B2, “Pesticidal carboxamides” (Bayer Intellectual Property GmbH, priority 2009, dated 2016).

The mortality is the share of the test organisms that died.

Holding throughout (format): in vivo
Series [1] deals with Tobacco Cutworm (Spodoptera litura) Larvae. In words: Test against tobacco cutworm (Spodoptera litura) larvae, leaf dip. Conditions: active compound concentration of 100 ppm, third instar larvae, after 7 days; for pest or weed control at 100 ppm: Spodoptera litura, foliar, 168 h, read-out: insecticidal activity. A digest of the protocol: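 Sweet potato leaves were dipped in the test solution (DMF solvent, polyoxyethylene alkyl phenyl ether emulsifier), air-dried and offered to ten third-instar larvae per dish at 25 °C, with fresh leaves added on days 2 and 4. Mortality was counted at day 7 and expressed as % insecticidal activity (100% = all dead).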

Series [2] has as its system Two-Spotted Spider Mite (Tetranychus Urticae). Kind of series: Test against two-spotted spider mite (Tetranychus urticae), spray. Conditions: active compound concentration of 100 ppm; adult mites; after 7 days. From the text: Solvent: 3 parts by weight of dimethylformamide
Emulsifier: 1 part by weight of polyoxyethylene alkyl phenyl ether

A further series has as its system Boophilus microplus. Kind of series: Boophilus microplus test (injection). Conditions: for mortality at 0.02 mg: Rhipicephalus microplus, 168 h, read-out: activity (mortality in %; 100% means that all eggs are infertile); for activity (mortality in %; 100% means that all eggs are infertile): application rate of 20 μg/animal, injection, after 7 days. The method, then: (§1) Solvent: dimethyl sulfoxide
Five adult engorged female ticks (Boophilus microplus) are injected with […] compound solution into the abdomen. Ticks are transferred into replica plates and incubated in a climate chamber for a period of time. Egg deposition of fertile eggs is monitored.
After 7 days mortality in % is determined. 100% means that all eggs are infertile; 0% means that all eggs are fertile. […]

The subject of the next series is Ctenocephalides felis. In words: whole plant or invertebrate. As to conditions: for mortality at 100 ppm: Ctenocephalides felis, in Bos taurus, 48 h, read-out: activity (mortality in %); for activity (mortality in %): application rate of 100 ppm in cattle blood, after 2 days. The method, then:
as §1
Approximately 20 adult unfed (Ctenocepahlides felis) are placed in flea chambers. […] The blood chamber is heated to 37° C. whereas the flea chamber is kept at room temperature.

The subject of series [3] is Lucilia cuprina 1st instar larvae. Kind of series: whole plant or invertebrate. Conditions: for activity (percentage of larval mortality): application rate of 100 ppm, after 48 hrs; for mortality at 100 ppm: Lucilia cuprina, 48 h, read-out: activity (percentage of larval mortality). The method, then: species: Lucilia cuprina 1st instar larvae (age 24 hrs)
solvent: dimethyl sulfoxide
Serial dilutions are made to obtain the desired rates. Approximately 20 Lucilia cuprina 1st instar larvae are transferred into a test tube containing 1 cm^3 of minced horse meat and 0.5 ml aqueous dilution of test compound. After 48 hrs percentage of larval mortality are recorded. 100% efficacy=all larvae are killed, […].

Series [4] relates to Cucurbit Leaf Beetle (Aulacophora Femoralis). Kind of series: Test against cucurbit leaf beetle (Aulacophora femoralis), leaf dip. Conditions: active compound concentration of 100 ppm, second instar larvae, after 7 days; for pest or weed control at 100 ppm: Aulacophora, foliar, 168 h, read-out: insecticidal activity. A digest of the protocol: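 Cucumber leaves dipped in compound solution (DMF solvent, polyoxyethylene alkyl phenyl ether emulsifier), air-dried, and placed with five second-instar larvae in cups on sterilized soil at 25° C. Dead larvae counted after 7 days; activity expressed as percent larvae killed.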

In the case of `CCc1cc(C(F)(C(F)(F)F)C(F)(F)F)cc(C)c1NC(=O)c1ccc(CNC(C)=O)cc1` [Compound 5-28, 4-(acetamidomethyl)-N-[2-ethyl-4-(1,1,1,2,3,3,3-heptafluoro-propan-2-yl)-6-methylphenyl]benzamide], the pest or weed control at 100 ppm in series [1] is 100%. Also, the acaricidal activity in series [2] was determined as 100%. The mortality at 0.02 mg in the series on Boophilus microplus amounted to 100%. Besides, in the series with Ctenocephalides felis, the mortality at 100 ppm came to 100%.

In series [1], `CCc1cc(C(F)(C(F)(F)F)C(F)(F)C(F)(F)F)cc(C)c1NC(=O)c1ccc(CNC(C)=O)c(I)c1` (stereo not shown) [Compound 5-194] displayed an insecticidal activity of 100%. The “activity (percentage of larval mortality)” value in series [3] is 95%.

In the case of `CCc1cc(C(F)(C(F)(F)F)C(F)(F)C(F)(F)F)cc(C)c1NC(=O)c1ccc(CNC(=O)CC(F)(F)F)cc1` (stereo not shown) [Compound 5-142], the insecticidal activity in series [1] and in series [4] was 100% each time. Further, the “activity (percentage of larval mortality)” value in series [3] is listed as 95%.

With `CCc1cc(C(F)(C(F)(F)F)C(F)(F)F)cc(C)c1NC(=O)c1ccc(CNC(=O)CC2CC2)cn1` [Compound 7-5], the insecticidal activity in series [1] and in series [4] was 100% each time. In addition, the “activity (mortality in %; 100% means that all eggs are infertile)” value in the series on Boophilus microplus was found to be 95%.

On to `CCc1cc(C(F)(C(F)(F)F)C(F)(F)F)cc(C)c1NC(=O)c1ccc(C#N)c(C)c1` [Compound I-5, 4-cyano-N[2-ethyl-4-(1,1,1,2,3,3,3-heptafluoropropan-2-yl)-6-methylphenyl]-3-methylbenzamide], for which the pest or weed control at 100 ppm in series [1] and in series [4] was 100% throughout. The mortality at 0.02 mg with Boophilus microplus was 100%. Further, the mortality at 100 ppm in series [3] amounted to 100%.

For `CCc1cc(C(F)(C(F)(F)F)C(F)(F)F)cc(C)c1NC(=O)c1ccc(CNC(=O)c2cccnc2F)c(Cl)c1` [Compound 5-82], the insecticidal activity in series [1] and in series [4] was 100% throughout. In addition, the acaricidal activity in series [2] stood at 100%. In addition, in series [3], the “activity (percentage of larval mortality)” value is on record as 95%.

On to `CCc1cc(C(F)(C(F)(F)F)C(F)(F)F)cc(C)c1NC(=O)c1ccc(C#N)nc1` [Compound J-1], for which, in the series on Boophilus microplus, the “activity (mortality in %; 100% means that all eggs are infertile)” value is on record as 95%.

On to `CCc1cc(C(F)(C(F)(F)F)C(F)(F)F)cc(C)c1NC(=O)c1ccc(-n2cncn2)c(NC(=O)OC)c1` [Compound 1-47, Methyl[5-{[2-ethyl-4-(1,1,1,2,3,3,3-heptafluoropropan-2-yl)-6methylphenyl]carbamoyl}-2-(1H-1,2,4-triazol-1-yl)phenyl]carbamate], for which the pest or weed control at 100 ppm in series [1] and in series [4] was 100% throughout. The mortality at 0.02 mg in the series on Boophilus microplus was found to be 100%. In addition, the mortality at 100 ppm in the series with Ctenocephalides felis was determined as 90%.

Consider `CCc1cc(C(F)(C(F)(F)F)C(F)(F)F)cc(C)c1NC(=O)c1cc(F)c(CNC(=O)CC(F)(F)F)cc1F` [Compound 5-62], for which the insecticidal activity in series [1] and in series [4] was 100% in each case. The acaricidal activity in series [2] is 100%.

Consider `CCc1cc(C(F)(C(F)(F)F)C(F)(F)C(F)(F)F)cc(C)c1NC(=O)c1ccc(CNC(=O)c2cccnc2Cl)c(Br)c1` (stereo not shown) [Compound 5-175], for which the insecticidal activity in series [1] and in series [4] was 100% in each case. This compound yielded an acaricidal activity in series [2] of 100%.

Regarding `CCc1cc(C(F)(C(F)(F)F)C(F)(F)F)cc(C)c1NC(=O)c1ccc(CNC(C)=O)c(Cl)c1` [Compound 5-77], the insecticidal activity in series [1] and in series [4] was 100% throughout. In addition, the acaricidal activity in series [2] is on record as 100%.

Compound `CCc1cc(C(F)(C(F)(F)F)C(F)(F)C(F)(F)F)cc(C)c1NC(=O)c1ccc(CNC(=O)C2CC2)c(F)c1` (stereo not shown) [Compound 5-146] had an insecticidal activity in series [1] of 100%. Also, the “activity (percentage of larval mortality)” value in series [3] was determined as 95%.

Turning to `O=C(CC(F)(F)F)NCc1ccc(C(=O)Nc2c(Cl)cc(C(F)(C(F)(F)F)C(F)(F)C(F)(F)F)cc2Cl)cc1Cl` (racemic) [Compound 5-244], the insecticidal activity in series [1] and in series [4] was 100% throughout. Besides, the acaricidal activity in series [2] is listed as 100%.

Turning to `CCc1cc(C(F)(C(F)(F)F)C(F)(F)F)cc(C)c1NC(=O)c1ccc(CN2C(=O)c3ccccc3C2=O)cc1` [Compound F-4, 4-[(1,3-dioxo-1,3-dihydro-2H-isoindol-2-yl)methyl]-N-[2-ethyl-4-(1,1,1,2,3,3,3-hepta-fluoropropan-2-yl)-6-methylphenyl]benzamide], in the series with Boophilus microplus, the mortality at 0.02 mg turned out to be 100%. In addition, the mortality at 100 ppm in series [3] amounted to 90%.

`CCc1cc(C(F)(C(F)(F)F)C(F)(F)C(F)(F)F)cc(C)c1NC(=O)c1ccc(CNC(=O)C2CC2)c(Br)c1` (stereo not shown) [Compound 5-159] gave an insecticidal activity in series [1] of 100%. Further, the “activity (mortality in %)” value in the series with Ctenocephalides felis turned out to be 98%.

For `CCc1cc(C(F)(C(F)(F)F)C(F)(F)Br)cc(C)c1NC(=O)c1ccc(CNC(=O)CSC)c(Cl)c1` (stereo not shown) [Compound 5-320], the insecticidal activity in series [1] and in series [4] was 100% in each case. The compound further came in with an acaricidal activity in series [2] of 100%.

For `CCc1cc(C(F)(C(F)(F)F)C(F)(F)F)cc(C)c1NC(=O)c1ccc(C(C)NC(C)=O)cc1` (stereo not shown) [Compound 9-2, 4-(1-acetamidoethyl)-N-[2-ethyl-4-(1,1,1,2,3,3,3-heptafluoropropan-2-yl)-6-methylphenyl]benzamide], the pest or weed control at 100 ppm in series [1] and in series [4] was 100% in each case. This compound also came in with an acaricidal activity in series [2] of 100%.

Take `CCc1cc(C(F)(C(F)(F)F)C(F)(F)F)cc(C)c1NC(=O)c1ccc(CNC(=O)CC(F)(F)F)c(Br)c1` [Compound 5-89]: the insecticidal activity in series [1] and in series [4] was 100% throughout. Besides, the acaricidal activity in series [2] was found to be 100%.

Turning to `CCc1cc(C(F)(C(F)(F)F)C(F)(F)F)cc(C)c1NC(=O)c1ccc(CNC(=O)CC(F)(F)F)c(C)c1` [Compound 5-102], the pest or weed control at 100 ppm in series [1] and in series [4] was 100% throughout. Moreover, in series [2], the acaricidal activity amounted to 100%. In addition, the mortality at 0.02 mg in the series with Boophilus microplus came out at 100%.

Take `CCc1cc(C(F)(C(F)(F)F)C(F)(F)F)cc(C)c1NC(=O)c1ccc(CNC(C)=O)c(Br)c1` [Compound 5-85]: the insecticidal activity in series [1] and in series [4] was 100% in each case. In addition, the acaricidal activity in series [2] is given as 100%.

As to `CCc1cc(C(F)(C(F)(F)F)C(F)(F)F)cc(C)c1NC(=O)c1ccc2c(c1)CCC2NC(=O)CC(F)(F)F` (stereo not shown) [Compound 10-6], the insecticidal activity in series [1] and in series [4] was 100% in each case. Also, the acaricidal activity in series [2] was determined as 100%.

As to `CCc1cc(C(F)(C(F)(F)F)C(F)(F)C(F)(F)F)cc(C)c1NC(=O)c1ccc(CNC(=O)c2cccnc2F)c(F)c1` (stereo not shown) [Compound 5-174], the insecticidal activity in series [1] and in series [4] was 100% throughout. Further, the “activity (percentage of larval mortality)” value in series [3] was 95%.

For the compound `CCc1cc(C(F)(C(F)(F)F)C(F)(F)C(F)(F)F)cc(C)c1NC(=O)c1ccc(CNC(C)=O)c(Br)c1` (stereo not shown) [Compound 5-157], the insecticidal activity in series [1] and in series [4] was 100% each time. Further, the acaricidal activity in series [2] turned out to be 100%.

On to `CCC(=O)NCc1ccc(C(=O)Nc2c(C)cc(C(F)(C(F)(F)F)C(F)(F)F)cc2OC(F)F)cc1Cl` [Compound 5-295], for which the insecticidal activity in series [1] and in series [4] was 100% in each case. For the same compound, the acaricidal activity in series [2] came out at 100%.

As for `O=C(CC1CC1)NCc1ccc(C(=O)Nc2c(Cl)cc(C(F)(C(F)(F)F)C(F)(F)F)cc2Cl)cc1` [Compound 5-225], the insecticidal activity in series [1] and in series [4] was 100% throughout. For the same compound, the acaricidal activity in series [2] was determined as 100%.

Regarding `CCC(=O)NCc1ccc(C(=O)Nc2c(C)cc(C(F)(C(F)(F)F)C(F)(F)C(F)(F)F)cc2CC)cc1` (stereo not shown) [Compound 5-139], the insecticidal activity in series [1] and in series [4] was 100% throughout. Moreover, the “activity (mortality in %)” value in the series with Ctenocephalides felis is recorded as 98%.

For the compound `CCc1cc(C(F)(C(F)(F)F)C(F)(F)F)cc(C)c1NC(=O)c1ccc(-n2cncn2)c(CNC(=O)OC(C)(C)C)c1` [Compound 12-1, tert-butyl[5-{[2-ethyl-4-(1,1,1,2,3,3,3-heptafluoropropan-2-yl)-6-methylphenyl]carbamoyl}-2-(1H-1,2,4-triazol-1-yl)benzyl]carbamate], the pest or weed control at 100 ppm in series [1] worked out at 100%. Further, in the series on Boophilus microplus, the mortality at 0.02 mg was 100%.
